Measured values: patent US4221909A, “P-Acetamidobenzoic acid salts of 9-(hydroxyalkyl) purines” (Sloan-Kettering Institute for Cancer Research, priority 1978, dated 1980)

What was measured:
herpes hominis type 2 = experiment: Anti-Herpes Activity (Plaque Assay); type: cell-based; conditions: concentrations less than 100 μg/ml
Source text: The infection of tissue culture cells by Herpes virus causes cell lysis. After a period of time these lysed cells are visualized as a tiny clear area (plaque) on a layer of cells. The incorporation of a test substance into the media will reduce the number of plaques if it is capable of preventing virus replication. The method is as follows:
There was employed herpes hominis type 2 purchased from American Type Culture Collection (ATCC), Bethesda, Md., ATCC #VR 540, Lot 3D. The lyophilized viral suspension was reconstituted with 1 ml sterile distilled H2 O. The virus was passed twice through HeLa-cell monolayers. The tissue-culture supernates were pooled, dispensed in 1-ml aliquots, and stored at -70° C.
Vero cells in log-growth phase were subcultured at a concentration of 1×10^5 cells/ml in 50-ml Falcon flasks in Eagle's Minimum Essential Medium (MEM), supplemented with 10% fetal calf serum (FCS) and antibiotics. Media were changed the day following planting. […]
Agarose was prepared at a concentration of 6% w/v in 50 ml PBS. […] In addition, a 1:10 dilution of pooled human anti-herpes sera was readied. […]
Plaques were counted either directly by transmitted fluorescent light and macroviewing, or by the use of light microscopy for microplaques. Microplaques were counted by averaging three fields per experimental group under 150× magnification.

Phase solubility studies = type: physicochemical; conditions: constant pH
Source text: This is indicative of an interaction occuring in solution to yield a complex.

## CCCCCC[C@H]([C@H](C)O)n1cnc2c(=O)[nH]cnc21 (relative stereo) [NPT 15392, Erythro-9-(2-Hydroxy-3-Nonyl)Hypoxanthine]
Herpes hominis type 2
  reduction of plaque formation caused by Herpes Simplex virus: > 90%
Phase solubility studies
  solubility at increasing concentrations of DIP.PAcBA: increased solubility
